# Species on record: Rattus norvegicus
# Experiment: DrugMatrix - Regimen: Daily Repeat
# Type: toxicity, organism-based, Sprague-Dawley
# Set-up: regimen Daily Repeat, gender Male, age 6-8 weeks
# Settings: in vivo, po, route oral GAVAGE, vehicle 100 % WATER; for ABSOLUTE BASOPHIL / ABSOLUTE EOSINOPHIL / ABSOLUTE LYMPHOCYTE / ABSOLUTE MONOCYTE / ABSOLUTE SEGMENTED NEUTROPHIL / BASOPHIL / EOSINOPHIL / ERYTHROCYTE COUNT / HEMATOCRIT / HEMOGLOBIN / LEUKOCYTE COUNT / LYMPHOCYTE / MEAN CORPUSCULAR HEMOGLOBIN / MEAN CORPUSCULAR HEMOGLOBIN CONCENTRATION / MEAN CORPUSCULAR VOLUME / MONOCYTE / NEUTROPHIL / NUCLEATED RED BLOOD CELLS / PLATELET COUNT: tissue Blood; for ALANINE AMINOTRANSFERASE / ALBUMIN / ALKALINE PHOSPHATASE / ASPARTATE AMINOTRANSFERASE / BLOOD UREA NITROGEN / CARBON DIOXIDE / CHLORIDE / CHOLESTEROL / CREATINE PHOSPHOKINASE / CREATININE / GLUCOSE / LACTATE DEHYDROGENASE / LIPASE / PHOSPHORUS / POTASSIUM / SODIUM / TOTAL BILIRUBIN / TOTAL PROTEIN / URIC ACID: tissue Plasma
# [1] = 0 mg/kg, 72 h, dose level Control, time 3 day
# [2] = 0 mg/kg, 120 h, dose level Control, time 5 day
# [3] = 100 mg/kg, 72 h, dose level Low, time 3 day
# [4] = 100 mg/kg, 120 h, dose level Low, time 5 day
smiles,measurement,setting,value
C[C@](N)(Cc1ccc(O)c(O)c1)C(=O)O [METHYLDOPA],ABSOLUTE BASOPHIL,[1],0 CELLS/uL
same,ABSOLUTE EOSINOPHIL,[1],46 CELLS/uL
same,ABSOLUTE LYMPHOCYTE,[1],10225.67 CELLS/uL
same,ABSOLUTE MONOCYTE,[1],319.33 CELLS/uL
same,ABSOLUTE SEGMENTED NEUTROPHIL,[1],1242.33 CELLS/uL
same,BASOPHIL,[1],0%
same,EOSINOPHIL,[1],0.33%
same,ERYTHROCYTE COUNT,[1],5.17 x10E6/uL
same,HEMATOCRIT,[1],33.43%
same,HEMOGLOBIN,[1],12.55 G/DL
same,LEUKOCYTE COUNT,[1],11.83 x10E3/uL
same,LYMPHOCYTE,[1],86.5%
same,MEAN CORPUSCULAR HEMOGLOBIN,[1],24.35 pg
same,MEAN CORPUSCULAR HEMOGLOBIN CONCENTRATION,[1],37.57 G/DL
same,MEAN CORPUSCULAR VOLUME,[1],64.8 fL
same,MONOCYTE,[1],2.67%
same,NEUTROPHIL,[1],10.5%
same,NUCLEATED RED BLOOD CELLS,[1],0.17 /100WBC
same,PLATELET COUNT,[1],1026.17 x10E3/uL
same,ALANINE AMINOTRANSFERASE,[1],52.67 u/L
same,ALBUMIN,[1],4.17 G/DL
same,ALKALINE PHOSPHATASE,[1],331 u/L
same,ASPARTATE AMINOTRANSFERASE,[1],92.33 u/L
same,BLOOD UREA NITROGEN,[1],15.33 mg/dL
same,CARBON DIOXIDE,[1],26.17 mmol/L
same,CHLORIDE,[1],103.17 MEQ/L
same,CHOLESTEROL,[1],73.67 mg/dL
same,CREATINE PHOSPHOKINASE,[1],472.83 u/L
same,CREATININE,[1],0.29 mg/dL
same,GLUCOSE,[1],178.5 mg/dL
same,LACTATE DEHYDROGENASE,[1],244.83 u/L
same,LIPASE,[1],10.67 u/L
same,PHOSPHORUS,[1],12.45 mg/dL
same,POTASSIUM,[1],6.35 MEQ/L
same,SODIUM,[1],144.27 MEQ/L
same,TOTAL BILIRUBIN,[1],0.13 mg/dL
same,TOTAL PROTEIN,[1],5.77 G/DL
same,URIC ACID,[1],2.08 mg/dL
same,ABSOLUTE BASOPHIL,[2],0 CELLS/uL
same,ABSOLUTE EOSINOPHIL,[2],23.5 CELLS/uL
same,ABSOLUTE LYMPHOCYTE,[2],12797.33 CELLS/uL
same,ABSOLUTE MONOCYTE,[2],465.5 CELLS/uL
same,ABSOLUTE SEGMENTED NEUTROPHIL,[2],1313.67 CELLS/uL
same,BASOPHIL,[2],0%
same,EOSINOPHIL,[2],0.17%
same,ERYTHROCYTE COUNT,[2],5.76 x10E6/uL
same,HEMATOCRIT,[2],36.72%
same,HEMOGLOBIN,[2],13.72 G/DL
same,LEUKOCYTE COUNT,[2],14.6 x10E3/uL
same,LYMPHOCYTE,[2],87.5%
same,MEAN CORPUSCULAR HEMOGLOBIN,[2],23.8 pg
same,MEAN CORPUSCULAR HEMOGLOBIN CONCENTRATION,[2],37.35 G/DL
same,MEAN CORPUSCULAR VOLUME,[2],63.72 fL
same,MONOCYTE,[2],3.17%
same,NEUTROPHIL,[2],9.17%
same,NUCLEATED RED BLOOD CELLS,[2],0.33 /100WBC
same,PLATELET COUNT,[2],1270.67 x10E3/uL
same,ALANINE AMINOTRANSFERASE,[2],50.5 u/L
same,ALBUMIN,[2],4.32 G/DL
same,ALKALINE PHOSPHATASE,[2],339.67 u/L
same,ASPARTATE AMINOTRANSFERASE,[2],88 u/L
same,BLOOD UREA NITROGEN,[2],17 mg/dL
same,CARBON DIOXIDE,[2],25 mmol/L
same,CHLORIDE,[2],103.83 MEQ/L
same,CHOLESTEROL,[2],71.33 mg/dL
same,CREATINE PHOSPHOKINASE,[2],281.83 u/L
same,CREATININE,[2],0.26 mg/dL
same,GLUCOSE,[2],161.67 mg/dL
same,LACTATE DEHYDROGENASE,[2],191.17 u/L
same,LIPASE,[2],10.17 u/L
same,PHOSPHORUS,[2],11.72 mg/dL
same,POTASSIUM,[2],6.76 MEQ/L
same,SODIUM,[2],145.17 MEQ/L
same,TOTAL BILIRUBIN,[2],0.2 mg/dL
same,TOTAL PROTEIN,[2],6.15 G/DL
same,URIC ACID,[2],2 mg/dL
same,ABSOLUTE BASOPHIL,[3],0 CELLS/uL
same,ABSOLUTE EOSINOPHIL,[3],0 CELLS/uL
same,ABSOLUTE LYMPHOCYTE,[3],10758.67 CELLS/uL
same,ABSOLUTE MONOCYTE,[3],142 CELLS/uL
same,ABSOLUTE SEGMENTED NEUTROPHIL,[3],1766 CELLS/uL
same,BASOPHIL,[3],0%
same,EOSINOPHIL,[3],0%
same,ERYTHROCYTE COUNT,[3],5.69 x10E6/uL
same,HEMATOCRIT,[3],36.1%
same,HEMOGLOBIN,[3],13.63 G/DL
same,LEUKOCYTE COUNT,[3],12.67 x10E3/uL
same,LYMPHOCYTE,[3],85.33%
same,MEAN CORPUSCULAR HEMOGLOBIN,[3],24.03 pg
same,MEAN CORPUSCULAR HEMOGLOBIN CONCENTRATION,[3],37.8 G/DL
same,MEAN CORPUSCULAR VOLUME,[3],63.63 fL
same,MONOCYTE,[3],1%
same,NEUTROPHIL,[3],13.67%
same,NUCLEATED RED BLOOD CELLS,[3],0 /100WBC
same,PLATELET COUNT,[3],1351.33 x10E3/uL
same,ALANINE AMINOTRANSFERASE,[3],54 u/L
same,ALBUMIN,[3],4.2 G/DL
same,ALKALINE PHOSPHATASE,[3],332.33 u/L
same,ASPARTATE AMINOTRANSFERASE,[3],92.67 u/L
same,BLOOD UREA NITROGEN,[3],19.33 mg/dL
same,CARBON DIOXIDE,[3],25.67 mmol/L
same,CHLORIDE,[3],102.67 MEQ/L
same,CHOLESTEROL,[3],84 mg/dL
same,CREATINE PHOSPHOKINASE,[3],281.67 u/L
same,CREATININE,[3],0.24 mg/dL
same,GLUCOSE,[3],161.33 mg/dL
same,LACTATE DEHYDROGENASE,[3],210.33 u/L
same,LIPASE,[3],13 u/L
same,PHOSPHORUS,[3],12.67 mg/dL
same,POTASSIUM,[3],7.2 MEQ/L
same,SODIUM,[3],145.7 MEQ/L
same,TOTAL BILIRUBIN,[3],0.23 mg/dL
same,TOTAL PROTEIN,[3],6.07 G/DL
same,URIC ACID,[3],2.93 mg/dL
same,ABSOLUTE BASOPHIL,[4],0 CELLS/uL
same,ABSOLUTE EOSINOPHIL,[4],0 CELLS/uL
same,ABSOLUTE LYMPHOCYTE,[4],9543.67 CELLS/uL
same,ABSOLUTE MONOCYTE,[4],215.33 CELLS/uL
same,ABSOLUTE SEGMENTED NEUTROPHIL,[4],1341 CELLS/uL
same,BASOPHIL,[4],0%
same,EOSINOPHIL,[4],0%
same,ERYTHROCYTE COUNT,[4],5.03 x10E6/uL
same,HEMATOCRIT,[4],32.97%
same,HEMOGLOBIN,[4],12.67 G/DL
same,LEUKOCYTE COUNT,[4],11.1 x10E3/uL
same,LYMPHOCYTE,[4],86%
same,MEAN CORPUSCULAR HEMOGLOBIN,[4],25.17 pg
same,MEAN CORPUSCULAR HEMOGLOBIN CONCENTRATION,[4],38.47 G/DL
same,MEAN CORPUSCULAR VOLUME,[4],65.47 fL
same,MONOCYTE,[4],1.67%
same,NEUTROPHIL,[4],12.33%
same,NUCLEATED RED BLOOD CELLS,[4],0 /100WBC
same,PLATELET COUNT,[4],979.33 x10E3/uL
same,ALANINE AMINOTRANSFERASE,[4],56.67 u/L
same,ALBUMIN,[4],4.1 G/DL
same,ALKALINE PHOSPHATASE,[4],363.67 u/L
same,ASPARTATE AMINOTRANSFERASE,[4],90 u/L
same,BLOOD UREA NITROGEN,[4],17 mg/dL
same,CARBON DIOXIDE,[4],24.33 mmol/L
same,CHLORIDE,[4],103.33 MEQ/L
same,CHOLESTEROL,[4],67 mg/dL
same,CREATINE PHOSPHOKINASE,[4],265.33 u/L
same,CREATININE,[4],0.56 mg/dL
same,GLUCOSE,[4],159 mg/dL
same,LACTATE DEHYDROGENASE,[4],154.33 u/L
same,LIPASE,[4],13.33 u/L
same,PHOSPHORUS,[4],11.83 mg/dL
same,POTASSIUM,[4],6.26 MEQ/L
same,SODIUM,[4],145.33 MEQ/L
same,TOTAL BILIRUBIN,[4],0.17 mg/dL
same,TOTAL PROTEIN,[4],5.8 G/DL
same,URIC ACID,[4],1.6 mg/dL
